The text below walks through data of US20100303887A1, “DHA and PEDF, a Therapeutic Composition for Nerve and Retinal Pigment Epithelial Cells” (priority 2007, published 2010).

Assay [1] concerns ARPE-19 cells. As to the kind of experiment: A2E-induced apoptosis in ARPE-19 cells (Hoechst 33258 staining). Type of assay: cell-based, human. The method, then:
Hoechst Staining. ARPE-19 cells were incubated with 2 μM Hoechst reagent dissolved in Lock's solution (Promega Corporation, Madison. Wis.) at 37° C. for 45 minutes before imaging. Cells were washed once with PBS and photographed using a Nikon DIAPHOT 200 microscope with fluorescence optics. Images were recorded by a Hamamatsu Color Chilled 3CCD camera and PHOTOSHOP 5.0 software (Adobe Systems, Mountain View, Calif.).
(§1) A2E, a lipofusin component, accumulates in the RPE during aging, and, in an exaggerated manner, in age-related macular degeneration (AMD) and Stargardt macular dystrophy (an early onset form of AMD). As a consequence, RPE apoptosis precedes the demise of photoreceptors. […] Seventy-two (72) hours after plating, ARPE-19 cells were serum starved for 4 hours. A2E (20 μM) was added in the presence of 430 nM light and O2 (see Materials and Methods). Other cells were exposed instead to H2O2/TNFα. NPD1 was added prior to, or at different times after, A2E or H2O2/TNFα, up to 12 hours. Time of NPD1 addition is indicated by black arrows on FIG. 1A. Hoechst 33258 was analyzed at 15 hours. FIG. 1B illustrates the appearance of Hoechst 33258 positive cells upon exposure to A2E and the effect of NPD1. FIG. 1C is similar to FIG. 1B, except that H2O2/TNFα was used to trigger oxidative stress. […]

The subject of assay [2] is ARPE-19 cells. As to the kind of experiment: Serum starvation/H2O2/TNFα oxidative stress-induced apoptosis in ARPE-19 cells (Hoechst staining). The class given is cell-based, human. Conditions: NPD1 added eight hours after triggering oxidative stress. The method, then: Exposure of ARPE-19 cells to growth factors. Cells at 75-80% confluence (72 hr growth in DMEM/F12+10% FBS) were serum-starved for 2 hr before exposure to growth factors. The serum-starved cells were treated with TNF-α (Sigma-Aldrich Corporation, St. Louis, Mo.) (10 ng/ml) and H2O2 (600 μM) to induce oxidative stress and challenged with increasing concentrations (10, 30, 50 nM) and PEDF (Chemicon International, Temecula, Calif.) (50 ng/ml) simultaneously with oxidative stress for 4 hr before harvesting for protein analysis. Cell extracts were made and protein concentrations were adjusted by Bio-Rad protein reagent and used for Western-blot analysis. […] Cells were analyzed to detect Hoechst-positive apoptotic cells.
Hoechst Staining. […] Cells were washed once with PBS and photographed using a Nikon DIAPHOT 200 microscope with fluorescence optics. Images were recorded by a Hamamatsu Color Chilled 3CCD camera and PHOTOSHOP 5.0 software (Adobe Systems, Mountain View, Calif.).
A2E, a lipofusin component, accumulates in the RPE during aging, and, in an exaggerated manner, in age-related macular degeneration (AMD) and Stargardt macular dystrophy (an early onset form of AMD). […] Hoechst 33258 was analyzed at 15 hours. […]

The test system of assay [3] is ARPE-19 cells. Nature of the assay: Cell viability using calcein (AM), ethidium homodimer and phase contrast microscopy after oxidative stress. The conditions noted are these: added up to 15 hr after triggering oxidative stress; data not shown. Type of assay: cell-based, human. From the text: A2E-triggered oxidative stress precedes cell death. Since oxidative stress and/or inflammatory signaling are involved in early stages of retinal degenerations, oxidative stress, triggered by another experimental condition, serum starvation/H2O2/TNFα was explored (FIG. 1C). NPD1 also exerted protection in this experimental condition. […] What was surprising was the extended time window. […] (Data not shown)

Assay [4] deals with A2E oxiranes (epoxides). As to the kind of experiment: A2E conversion to A2E oxiranes (epoxides) in ARPE-19 cells, LC-MS-MS. Type of assay: cell-based, human. Conditions: NPD1 50 nM; light and oxygen. The procedure:
as §1, with “stress. FIG. 1D depicts the formation of oxiranes (epoxides) upon exposure of ARPE-19 cells to A2E in the presence of O2 and 430 nM light for 15 minutes followed by 60 minutes incubation in the dark.” for “stress.”
To study the mechanism of NPD1-mediated RPE protection against A2E oxidative stress, the possibility that A2E conversion to A2E oxiranes (epoxides) may be the target of NPD1 was tested. […] Multiple oxiranes (epoxides), up to nonaoxiranes, were detected by MS-MS in ARPE-19 cells exposed to light and oxygen (FIG. 1D).

The test system of assay [5] is caspase-3. Nature of the assay: Caspase-3 cleavage in A2E-exposed ARPE-19 cells (Western blot). The conditions noted are these: NPD1 50 nM. The class given is cell-based, human. The method, then: (§2) Analysis of Bcl-2 and caspase-3 cleavage. Bcl-2 protein and caspase-3 cleavage were analyzed by Western-blot analysis. Also, ARPE-19 cells, stably transfected with a lentivirus construct containing the […] caspase 3 cleavage sequence, were used. In short, 15-20 μg equivalent of each cell extract were subjected to electrophoresis on an 8-16% gel (Invitrogen Corporation, Carlsbad, Calif.) at 125 volts for 2 hr. The proteins were transferred to nitrocellulose membranes at 30 volts for 70 minutes at 4° C. The membranes were probed with primary antibodies against Bcl-2 (Santa Cruz Biotechnology, Inc., Santa Cruz, Calif.) and cleaved caspase-3 (Asp-175) (Cell Signaling) at room temperature and treated for 20 minutes with the secondary antibody, goat anti-rabbit IgG: horseradish peroxidase, and horseradish peroxidase-conjugated anti-biotin antibody, then proteins were detected by using an ECL kit (Amersham Biosciences, Buckinghamshire, United Kingdom).
(§3) Caspase cleavage and Bcl-2 changes triggered by A2E are restored by NPD1. […] NPD1 (50 nM) counteracted the effect of A2E (see Materials and Methods). Data is an average of relative density detection±SEM of six individuals. […] These findings indicate that NPD1 protects the RPE against A2E-induced apoptosis at the pre-mitochondrial level of the apoptosis cascade by altering Bcl-2 balance. […]
In general terms: A western blot detects proteins with antibodies after separation by electrophoresis.

Assay [6] has as its system Bax. Nature of the assay: Bax expression in A2E-exposed ARPE-19 cells (Western blot). Type of assay: cell-based, human. The conditions noted are these: NPD1 50 nM.
The test system of assay [7] is Bcl-2. As to the kind of experiment: Bcl-2 expression in A2E-exposed ARPE-19 cells (Western blot). Conditions: NPD1 50 nM. Type of assay: cell-based, human. The procedure:
as §2, §3

The test system of assay [8] is NPD1 synthesis. As to the kind of experiment: NPD1 synthesis and release from polarized primary human RPE cell monolayers (lipidomic analysis). Type of assay: cell-based. The method, then:
Human RPE cells. Cultures of retinal pigment epithelial (RPE) cells were prepared. RPE cells were seeded onto Millicell-HA culture plate inserts (Millipore, Bradford, Mass.), placed in 24-well plates, and allowed to reach confluence. Consent for use of tissue for research was obtained in compliance with Federal and State law and institutional regulations. Cultures were maintained in Chee's essential replacement medium until the experiments were performed as described in J. Hu and D. Bok (2001) Mol Vis 7:14-19. The medium includes Eagle's minimal essential medium with calcium (MEM, Irvine Scientific, Irvine, Calif.), 1% heat-inactivated calf serum (JRH Bioscience, Lennexo, Kans.), amino acid supplements, and 1% bovine retinal extract. The Millicell-HA filter inserts allow separate manipulation of the culture media bathing the apical and basal surfaces of the RPE monolayer and measurement of the transepithelial resistance (TER), which provides a measure of cell differentiation and confluency. Cultures were used for experiments once they developed a TER of at least 400 Ω·cm^2, as measured by an Epithelial Volt-ohmmeter (EVOM, World Precision Instruments, New Haven, Conn.).
Exposure of RPE cells to growth factors. […] […] The lower chamber was filled with 500 μl media (bathing the basal cell monolayer surface) containing 0.1% HSA. Cells were incubated for 72 hours, then apical and basal media were removed and collected for analysis. After allowing the cells to rest for at least 72 hours on fresh media, the experiments were repeated.
Lipidomic analysis. Human RPE primary cell cultures or ARPE-19 cells were separated from culture media and washed with 1 ml PBS. After addition of 1 ml methanol, cells were scraped from plates or millicell membranes and collected for lipid extraction. Media was spun-down to separate cell debris, then 350 μl were collected in 1 ml of cold chloroform:methanol (1:1). Protein precipitates were then separated by centrifugation at 1500×g (5 min, 4° C.). Lipid extracts were collected, and kept under nitrogen at −80° C. until solid-phase purification; extracts were pre-equilibrated at pH 3.0 in 10% methanol/water, then loaded to 500 mg C18 columns (Varian, Inc., Palo Alto, Calif.), and eluted with 1% methanol/ethyl acetate. Eluates were concentrated on a N2 stream evaporator. Samples were loaded to a liquid chromatograph-tandem mass spectrometer (LC-TSQ Quantum, Thermo-Finnigan; Thermo Fisher Scientific, Waltham, Mass.) installed with a Biobasic-AX column (Thermo-Hypersil-Keystone, Thermo Fisher Scientific, Waltham, Mass.) (100 mm\2.1 mm, 5-μm particle sizes), and eluted in a linear gradient [100% solution A (40:60:0.01 methanol/water/acetic acid pH 4.5) to 100% solution B (99.99:0.01 methanol/acetic acid)], at a flow rate of 300 μl/min for 30 minutes. LC effluents were diverted to an electro-spray-ionization probe (ESI) on a TSQ Quantum (Thermo-Finnigan, Thermo Fisher Scientific, Waltham, Mass.) triple quadrupole mass spectrometer. NPD1 and resolving D1 were obtained by biogenic synthesis as described in N. G. Bazan, D. L. Birkle, and T. S. Reddy (1984) Biochem Biophys Res Commun. 125:741-74, and V. L. Marcheselli et al. (2003) J. Biol. Chem. 278:43807-43817. Erratum in: (2003) J Biol Chem 278:51974. Other lipid standards (Cayman Chem. Ann Arbor, Mich.) were used for tuning and optimization and to create calibration curves. The instrument was set on full-scan mode, to detect parent ions, and selected reaction mode (SRM) for quantitative analysis, to detect product ions, simultaneously. The selected parent/product ions (m/z) and collision energy (v) obtained by running on negative ion detection mode were: 359.2/153.1/20 for NPD1, 343.2/281.2/18 for resolving D1, 351.2/195.0/22 for 20HO-LTB4 (used as internal standard), 327.2/283.3/16 for DHA, 311.3/267.3/20 Arachidonic Acid-d8 (used as internal standard, IS).
Neurotrophins activated NPD1 synthesis in cultured primary human RPE cells. […]

The mark [9] stands for this setting: increasing concentrations, 72 hr.

Consider `CC/C=C\C[C@H](O)\C=C/C=C/C=C/[C@H](O)C/C=C\C/C=C\CCC(=O)O` [NPD1, Neuroprotectin D1], for which the “Cytoprotection against A2E-induced apoptosis (Hoechst 33258 positive cells)” value in assay [1] (A2E 20 μM, 430 nm light and O2, Hoechst at 15 hours) is reported as “cytoprotective”. Further, in assay [1] (NPD1 50 nM added 6 hours after A2E), the “Protection against A2E-induced apoptosis, delayed addition” value is reported as “ensures protection”. Further, in assay [2], the “Protection against H2O2/TNFα oxidative stress-induced apoptosis, delayed addition” value is “resulted in protection”. For the same molecule, the “Protection of cell viability (calcein AM, ethidium homodimer, phase contrast)” value in assay [3] is “showed protection”. For the same molecule, the “Effect on A2E conversion to A2E oxiranes (epoxides)” value in assay [4] was “did not affect this conversion”. Besides, the “Effect on A2E-enhanced caspase-3 cleavage” value in assay [5] is “counteracted A2E-enhanced caspase-3 cleavage”. For the same molecule, the “Effect on Bax expression” value in assay [6] is on record as “showed a tendency to decrease Bax expression”. In assay [7], the “Effect on Bcl-2 protein expression” value is recorded as “increased Bcl-2 protein expression”.
In the case of `CCCCC/C=C\C/C=C\C/C=C\C/C=C\CCCC(=O)O` [arachidonic acid, reference compound], the “NPD1 synthesis and release, fatty acid added to the apical medium” value in assay [8] (72 hr, DHA 0 to 200 nM, arachidonic acid under similar conditions) is given as “failed to induce NPD1 synthesis”. For the same molecule, the “NPD1 synthesis, arachidonic acid in the presence of PEDF” value in assay [8] (added arachidonic acid with PEDF) was “did not stimulate NPD1 synthesis”.
Turning to `CC/C=C\C/C=C\C/C=C\C/C=C\C/C=C\C/C=C\CCC(=O)O` [DHA, docosahexaenoic acid], the “Cellular NPD1 content (percentile distribution of total NPD1)” value in assay [8] (200 nM DHA (25% when no DHA was added)) is listed as 7%. Further, in assay [8] (DHA treatment on the apical media), the “DHA concentration at which NPD1 in the apical media reaches a maximum” value is 50 nM.

B1: CNTF: ciliary neurotrophic factor, a neurotrophin (protein, UniProt P26441 1-200, looked up)
Ciliary neurotrophic factor: MAFTEHSPLTPHRRDLCSRSIWLARKIRSDLTALTESYVKHQGLNKNINLDSADGMPVASTDQWSELTEAERLQENLQAYRTFHVLLARLLEDQQVHFTPTEGDFHQAIHTLLLQVAAFAYQIEELMILLEYKIPRNEADGMPINVGDGGLFEKKLWGLKVLQELSQWTVRSIHDLRFISSHQTGIPARGSHYIANNKKM
Take B1: in assay [8] (setting [9]), the “NPD1 release, neurotrophin added to the apical medium” value is “concentration-dependent increases in NPD1 release only on the apical side” and the “NPD1 release, neurotrophin added to the basal medium” value is “much less NPD1 release on the apical side”.
